Data as given in patent US8784793B2, “Conformable solvent-based bandage and coating material” (Rochal Industries LLP, priority 2005, dated 2014).

Experiment: Rate of polymerization of BCA on a glass slide as a function of HMDS concentration
Type: physicochemical
Protocol: Additionally, a test was conducted for the rate of polymerization as a function of solvent concentration in order to assess the time interval for heat generation upon the polymerization of the cyanoacrylate monomer. The mixture included n-butyl cyanoacrylate in the presence and absence of hexamethyldisiloxane. […] Utilizing a glass slide containing BCA with no HMDS as the control, polymerization of this neat system occurred in 25 seconds. When a 20% BCA solution in HMDS was studied, utilizing the same amount of BCA as in the control, polymerization occurred in 40 seconds, and decreased the polymerization rate by 60%. […] Thus, the addition of the non-stinging, non-irritating volatile hexamethyldisiloxane solvent caused polymerization of the cyanoacrylate to occur at a slower rate than that reported by U.S. Pat. No. 6,010,714, allowing the heat of polymerization to be more evenly dissipated. […] The use of the HMDS would thus facilitate rapid coverage of a wound site.

- flow over the glass surface: tended to bead
- time in which polymerization occurred (same amount of BCA as control): 25 s
SMILES: C=C(C#N)C(=O)OCCCC [BCA, n-Butyl cyanoacrylate]
